According to patent US11999727B2 (Tango Therapeutics, Inc., priority 2020, dated 2024):

Key:
PRMT5 [1] = target: T1, PRMT5 (Homo sapiens, UniProt O14744); assay: PRMT5 biochemical IC50 assay with SAM as cofactor; conditions: PRMT5, SAM as cofactor; read-out: SAM IC50
T1 construct: purchased Viva (custom protein)

PRMT5 [2] = target: T1, PRMT5; assay: PRMT5 biochemical IC50 assay with no cofactor; conditions: PRMT5, no cofactor; read-out: No Cofactor/rel IC50
Source text: Table 1 indicates IC50 values (μM) against PRMT5 for exemplary compounds in the presence of SAM as cofactor, with no cofactor, and with MTA as cofactor, respectively (columns 4-6). […] Ki values can be calculated from the IC50 values as described in the Examples section. As detailed in the Examples section, for the assay performed in the presence of SAM, IC50=Ki×1.5 (Ki=IC50/1.5).

PRMT5 [3] = target: T1, PRMT5; assay: PRMT5 biochemical IC50 assay with MTA as cofactor; conditions: PRMT5, MTA as cofactor; read-out: MTA IC50
[4] = test system: HAP1 MTAP-intact cell line; assay: SDMA in-cell western assay, HAP1 MTAP-intact; format: cell-based; conditions: Homo sapiens, HAP1, SDMA in-cell western, HAP1 MTAP-intact; read-out: MTAP HAP1 intact IC50
Method in brief: (§1)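 MTAP-null vs endogenous-MTAP HAP1 isogenic cells; in-cell western SDMA readout; IC50 per line.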

[5] = test system: HAP1 MTAP-deleted cell line; assay: SDMA in-cell western assay, HAP1 MTAP-deleted; format: cell-based; conditions: for IC50: Homo sapiens, HAP1, SDMA in-cell western, HAP1 MTAP-deleted, read-out: HAP1 MTAP deleted IC50; for MTAP intact/deleted ratio: IC50 ratio HAP1 MTAP-intact / HAP1 MTAP-deleted, SDMA in-cell western
Method in brief: as §1

[6] = test system: HAP1 MTAP-deleted cell line; assay: Viability assay, MTAP-deleted cell line; format: cell-based; conditions: Homo sapiens, HAP1, viability assay, MTAP-deleted cell line; read-out: HAP1 MTAP deleted viability
Source text: Table 1 additionally indicates IC50 values in a viability assay for the MTAP-deleted cell line (column 10), indicating the effect of treatment with compound on cell survival.

T1 sequence (O14744 whole entry): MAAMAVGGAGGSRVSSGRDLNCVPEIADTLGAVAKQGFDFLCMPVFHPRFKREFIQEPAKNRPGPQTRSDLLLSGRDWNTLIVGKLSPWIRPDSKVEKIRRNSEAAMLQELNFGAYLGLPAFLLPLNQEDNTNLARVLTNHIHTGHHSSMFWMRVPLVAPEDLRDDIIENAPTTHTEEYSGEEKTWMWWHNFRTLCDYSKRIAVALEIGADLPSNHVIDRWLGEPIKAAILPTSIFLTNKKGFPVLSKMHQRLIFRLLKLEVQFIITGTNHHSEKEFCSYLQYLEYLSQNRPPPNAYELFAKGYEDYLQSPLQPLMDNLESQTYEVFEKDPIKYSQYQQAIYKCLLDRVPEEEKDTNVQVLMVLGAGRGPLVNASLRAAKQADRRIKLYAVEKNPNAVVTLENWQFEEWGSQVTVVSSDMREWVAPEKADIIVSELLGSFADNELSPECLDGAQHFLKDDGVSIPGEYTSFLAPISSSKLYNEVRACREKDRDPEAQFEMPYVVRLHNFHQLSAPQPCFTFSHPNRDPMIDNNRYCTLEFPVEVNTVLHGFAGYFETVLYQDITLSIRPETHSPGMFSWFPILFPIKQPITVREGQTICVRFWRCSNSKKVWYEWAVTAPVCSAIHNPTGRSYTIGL
T1 sequence (Q9BQA1 whole entry partner): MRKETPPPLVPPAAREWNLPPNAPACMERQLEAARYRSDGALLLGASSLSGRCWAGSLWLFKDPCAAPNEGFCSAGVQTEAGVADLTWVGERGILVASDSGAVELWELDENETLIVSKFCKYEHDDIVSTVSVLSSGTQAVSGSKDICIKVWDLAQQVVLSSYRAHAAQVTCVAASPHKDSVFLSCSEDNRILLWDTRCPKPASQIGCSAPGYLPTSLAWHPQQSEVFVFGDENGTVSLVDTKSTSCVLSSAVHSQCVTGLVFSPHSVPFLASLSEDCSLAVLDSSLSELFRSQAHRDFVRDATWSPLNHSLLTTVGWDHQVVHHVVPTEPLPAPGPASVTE

Structure (SMILES)	IC50 (PRMT5 [1])	IC50 (PRMT5 [2])	IC50 (PRMT5 [3])	IC50 [4]	IC50 [5]	MTAP intact/deleted ratio [5]	IC50 [6]
C[C@@H]1CC[C@@H](c2cc(F)c(F)c(F)c2)N(C(=O)C(=O)Nc2cncc(C(N)=O)c2)C1 (single isomer, unassigned) [Compound 476]	> 0.5 µM	> 0.5 µM	> 0.5 µM	> 1 µM	> 1 µM	C (an IC50 ratio of less than 3 fold)	> 10 µM
C[C@H]1CC[C@H](c2cc(F)c(F)c(F)c2)N(C(=O)C(=O)Nc2cncc(C(N)=O)c2)C1 (single isomer, unassigned) [Compound 477]	0.05 to 0.5 µM	0.05 to 0.5 µM	< 0.05 µM	> 1 µM	< 0.1 µM	A (an IC50 ratio greater than or equal to 10 fold)	1 to 10 µM
Cc1cc(NC(=O)C(=O)N2C[C@H](C)CC[C@H]2c2cc(F)c(F)c(F)c2)cnc1N (single isomer, unassigned) [Compound 478]	0.05 to 0.5 µM	0.05 to 0.5 µM	< 0.05 µM	> 1 µM	0.1 to 1 µM	A (an IC50 ratio greater than or equal to 10 fold)	1 to 10 µM
C[C@@H]1CC[C@@H](c2ccccc2)N(C(=O)C(=O)Nc2cncc(C(N)=O)c2)[C@H]1C (single isomer, unassigned) [Compound 482]	0.05 to 0.5 µM	0.05 to 0.5 µM	< 0.05 µM	> 1 µM	< 0.1 µM	A (an IC50 ratio greater than or equal to 10 fold)	< 1 µM
C[C@@H]1[C@@H](C)CC[C@H](c2ccccc2)N1C(=O)C(=O)Nc1cncc(C(N)=O)c1 (single isomer, unassigned) [Compound 483]	> 0.5 µM	> 0.5 µM	> 0.5 µM	> 1 µM	> 1 µM	C (an IC50 ratio of less than 3 fold)	> 10 µM
Cc1ccc([C@H]2CC[C@H](C)CN2C(=O)C(=O)Nc2cncc(C(N)=O)c2)cc1Cl (single isomer, unassigned) [Compound 484]	0.05 to 0.5 µM	0.05 to 0.5 µM	< 0.05 µM	> 1 µM	< 0.1 µM	A (an IC50 ratio greater than or equal to 10 fold)	1 to 10 µM
Cc1ccc([C@@H]2CC[C@@H](C)CN2C(=O)C(=O)Nc2cncc(C(N)=O)c2)cc1Cl (single isomer, unassigned) [Compound 485]	> 0.5 µM	> 0.5 µM	> 0.5 µM	> 1 µM	> 1 µM	C (an IC50 ratio of less than 3 fold)	> 10 µM
C[C@@H]1CC[C@@H](C2CCC(F)(F)CC2)N(C(=O)C(=O)Nc2cncc(C(N)=O)c2)C1 (single isomer, unassigned) [Compound 486]	> 0.5 µM	> 0.5 µM	> 0.5 µM	> 1 µM	> 1 µM	C (an IC50 ratio of less than 3 fold)	> 10 µM
Cc1cc(NC(=O)C(=O)N2C[C@@H](C)CC[C@@H]2c2cc(F)c(F)c(F)c2)cnc1N (single isomer, unassigned) [Compound 487]	> 0.5 µM	> 0.5 µM	> 0.5 µM	> 1 µM	> 1 µM	C (an IC50 ratio of less than 3 fold)	> 10 µM
C[C@H]1CC[C@H](c2ccc(Cl)c(Cl)c2)N(C(=O)C(=O)Nc2cncc(C(N)=O)c2)C1 (single isomer, unassigned) [Compound 488]	0.05 to 0.5 µM	0.05 to 0.5 µM	< 0.05 µM	> 1 µM	0.1 to 1 µM	A (an IC50 ratio greater than or equal to 10 fold)	1 to 10 µM
C[C@@H]1CC[C@@H](c2ccc(Cl)c(Cl)c2)N(C(=O)C(=O)Nc2cncc(C(N)=O)c2)C1 (single isomer, unassigned) [Compound 489]	> 0.5 µM	> 0.5 µM	> 0.5 µM	> 1 µM	> 1 µM	C (an IC50 ratio of less than 3 fold)	> 10 µM
C[C@@H]1CC[C@@H](c2cc(Cl)cc(Cl)c2)N(C(=O)C(=O)Nc2cncc(C(N)=O)c2)C1 (single isomer, unassigned) [Compound 490]	> 0.5 µM	> 0.5 µM	> 0.5 µM	> 1 µM	> 1 µM	C (an IC50 ratio of less than 3 fold)	> 10 µM
C[C@H]1CC[C@H](c2cc(Cl)cc(Cl)c2)N(C(=O)C(=O)Nc2cncc(C(N)=O)c2)C1 (single isomer, unassigned) [Compound 491]	0.05 to 0.5 µM	0.05 to 0.5 µM	< 0.05 µM	> 1 µM	0.1 to 1 µM	A (an IC50 ratio greater than or equal to 10 fold)	1 to 10 µM
C[C@@H]1CC[C@@H](c2ccc(N)nc2)N(C(=O)C(=O)Nc2cncc(C(N)=O)c2)C1 (single isomer, unassigned) [Compound 492]	0.05 to 0.5 µM	< 0.05 µM	< 0.05 µM	> 1 µM	< 0.1 µM	A (an IC50 ratio greater than or equal to 10 fold)	1 to 10 µM
C[C@H]1CC[C@H](c2ccc(N)nc2)N(C(=O)C(=O)Nc2cncc(C(N)=O)c2)C1 (single isomer, unassigned) [Compound 493]	> 0.5 µM	> 0.5 µM	> 0.5 µM	> 1 µM	> 1 µM	C (an IC50 ratio of less than 3 fold)	> 10 µM
Cc1cc(NC(=O)C(=O)N2C[C@H](C)CC[C@H]2c2cccc(C(F)(F)F)c2)cnc1N (single isomer, unassigned) [Compound 496]	0.05 to 0.5 µM	< 0.05 µM	< 0.05 µM	> 1 µM	< 0.1 µM	A (an IC50 ratio greater than or equal to 10 fold)	1 to 10 µM
Cc1cc(NC(=O)C(=O)N2C[C@H](C)CC[C@H]2c2ccc(NS(C)(=O)=O)cc2)cnc1N (single isomer, unassigned) [Compound 499]	0.05 to 0.5 µM	< 0.05 µM	< 0.05 µM	> 1 µM	0.1 to 1 µM	A (an IC50 ratio greater than or equal to 10 fold)	< 1 µM
Cc1cc(NC(=O)C(=O)N2C[C@@H](C)CC[C@@H]2c2ccc3c(c2)CCCN3)cnc1N (single isomer, unassigned) [Compound 503]	> 0.5 µM	> 0.5 µM	> 0.5 µM	> 1 µM	> 1 µM	C (an IC50 ratio of less than 3 fold)	> 10 µM
Cc1cc(NC(=O)C(=O)N2C[C@H](C)CC[C@H]2c2ccc3c(c2)CCCN3)cnc1N (single isomer, unassigned) [Compound 504]	0.05 to 0.5 µM	< 0.05 µM	< 0.05 µM	0.1 to 1 µM	< 0.1 µM	A (an IC50 ratio greater than or equal to 10 fold)	< 1 µM
Cc1cc(NC(=O)C(=O)N2C[C@@H](C)CC[C@@H]2c2ccc(NS(C)(=O)=O)cc2)cnc1N (single isomer, unassigned) [Compound 506]	> 0.5 µM	> 0.5 µM	> 0.5 µM	> 1 µM	> 1 µM	B (an IC50 ratio greater than or equal to 3 fold but lower than 10 fold)	> 10 µM
Cc1cc(NC(=O)C(=O)N2C[C@@H](C)CC[C@@H]2c2cccc(C(F)(F)F)c2)cnc1N (single isomer, unassigned) [Compound 507]	> 0.5 µM	> 0.5 µM	> 0.5 µM	> 1 µM	> 1 µM	C (an IC50 ratio of less than 3 fold)	> 10 µM
C[C@@H]1CC[C@@H](c2ccc(C(F)(F)F)cc2)N(C(=O)C(=O)Nc2cncc(C(N)=O)c2)C1 (single isomer, unassigned) [Compound 508]	> 0.5 µM	> 0.5 µM	> 0.5 µM	> 1 µM	> 1 µM	C (an IC50 ratio of less than 3 fold)	> 10 µM
C[C@H]1CC[C@H](c2cccc(C(F)(F)F)c2)N(C(=O)C(=O)Nc2cncc(C(N)=O)c2)C1 (single isomer, unassigned) [Compound 509]	0.05 to 0.5 µM	0.05 to 0.5 µM	< 0.05 µM	> 1 µM	< 0.1 µM	A (an IC50 ratio greater than or equal to 10 fold)	1 to 10 µM
